Test results as given in patent US8969516B2, “Method of hydrolysis of peptide bond” (priority 2006, dated 2015).

Assay: MALDI-TOF screening of Ni^2+ dependent hydrolysis in a combinatorial peptide library
Format: physicochemical
Conditions: CH3CO-Gly-Ala-Ser-X-His-Z-Lys-Phe-Leu-NH2 library, Ni^2+ 2 mM, pH 8.2, 10 mM Tris, score=24/tm
Text: The sequence CH3CO-Gly-Ala-Ser/Thr-X-His-Z-Lys-Phe-Leu-NH2 was designed so that the fixed R1 and R2 sequences, CH3CO-Gly-Ala, and Lys-Phe-Leu-NH2, respectively, allowed optimal detection by MALDI-TOF mass spectrometry of substrates as well as expected products, Ser/Thr-X-His-Z-Lys-Phe-Leu-NH2 and assured separation between the clusters of signals for substrates and products in sublibraries (see below).
Residues in position X included all amino acids commonly present in proteins, except for Asp, Glu, and Cys. The former two contain carboxylates in their side chains, which may bind Ni^2+ in a way which would quench or slow down the hydrolysis reaction. The Cys residue may do the same, and also may engage in side reactions with Ni^2+ ions, including redox processes (for example see Bal and Kasprzak, Toxicol. Lett. 2002, 127, 55-62). Only the Cys residue was eliminated from position Z, for the same reasons.
The synthesis of the library was accomplished on a RINK amide resin (Novabiochem) on a 800 mg scale, according to a typical Fmoc protocol (Fields, Meth. Enzymol. Vol. 289). The resin-attached Leu-Phe-Lys peptide was synthesised first and coupled with the isokinetic mixture of 19 amino acids selected for position Z, and then with the H is residue. The resin carrying the library of pentapeptides was divided into Ser and Thr halves at this stage, and each of these halves into 17 portions, which were coupled with individual amino acids selected for position X. The coupling with Ser or Thr as appropriate, additions of Ala and Gly residues, acetylation of Gly, deprotection and cleavage from the resin were accomplished subsequently. Each of the resulting 34 samples of sublibraries randomized at position X was separated into two portions, one for the reaction at 37° C. and another for the reaction at 45° C. The hydrolysis reactions were accomplished in 10 mM Tris buffers at pH 8.2. The total concentrations of peptide mixtures and Ni^2+ ions were 1 mM and 2 mM, respectively. The pH for the reaction was chosen as selective for highly reactive sequences.
The detection of reaction products was accomplished with the use of a MALDI-TOF mass spectrometer (Micromass). The aliquots were removed from reaction mixtures and measured by MS at 2, 4, 6, and 8 hours of incubation. The progress of reaction was evaluated by visual detection in mass spectra of appearance of signals corresponding to expected products of hydrolysis, Ser/Thr-X-His-Z-Lys-Phe-Leu-NH2, at given measurement times, tm. […] Also the decrease of signals of substrates was controlled in these cases.
Residues X and Z were then sorted according to various molecular parameters, describing their physical properties (Carugo, In Silico Biol. 2003, 3, 0035). […] The Ser library provided a higher number of reactive peptides than the Thr library. Following the additivity of effects, the scores were also summed up in lines and columns of Table 1A-D, thereby creating final rankings for preferred substitutions in positions X and Z.

Row | Substance | hydrolysis score from MALDI-TOF screening (37° C.) | hydrolysis score from MALDI-TOF screening (45° C.)
1 | Ac-GASGHDKFL-NH2 [SGHD] | 0 (a score of 0 if no trace of the product of hydrolysis was seen after 8 hours of incubation) | 0 (a score of 0 if no trace of the product of hydrolysis was seen after 8 hours of incubation)
2 | Ac-GASGHEKFL-NH2 [SGHE] | 0 (a score of 0 if no trace of the product of hydrolysis was seen after 8 hours of incubation) | 0 (a score of 0 if no trace of the product of hydrolysis was seen after 8 hours of incubation)
3 | Ac-GASGHFKFL-NH2 [SGHF] | 0 (a score of 0 if no trace of the product of hydrolysis was seen after 8 hours of incubation) | 0 (a score of 0 if no trace of the product of hydrolysis was seen after 8 hours of incubation)
4 | Ac-GASGHGKFL-NH2 [SGHG] | 0 (a score of 0 if no trace of the product of hydrolysis was seen after 8 hours of incubation) | 0 (a score of 0 if no trace of the product of hydrolysis was seen after 8 hours of incubation)
5 | Ac-GASGHHKFL-NH2 [SGHH] | 0 (a score of 0 if no trace of the product of hydrolysis was seen after 8 hours of incubation) | 0 (a score of 0 if no trace of the product of hydrolysis was seen after 8 hours of incubation)
6 | Ac-GASGHIKFL-NH2 [SGHI] | 0 (a score of 0 if no trace of the product of hydrolysis was seen after 8 hours of incubation) | 3 (a score of 3 for detection at 8 hours)
7 | Ac-GASGHKKFL-NH2 [SGHK] | 0 (a score of 0 if no trace of the product of hydrolysis was seen after 8 hours of incubation) | 3 (a score of 3 for detection at 8 hours)
8 | Ac-GASGHLKFL-NH2 [SGHL] | 0 (a score of 0 if no trace of the product of hydrolysis was seen after 8 hours of incubation) | 3 (a score of 3 for detection at 8 hours)
9 | Ac-GASGHMKFL-NH2 [SGHM] | 0 (a score of 0 if no trace of the product of hydrolysis was seen after 8 hours of incubation) | 0 (a score of 0 if no trace of the product of hydrolysis was seen after 8 hours of incubation)
10 | Ac-GASGHNKFL-NH2 [SGHN] | 0 (a score of 0 if no trace of the product of hydrolysis was seen after 8 hours of incubation) | 0 (a score of 0 if no trace of the product of hydrolysis was seen after 8 hours of incubation)
11 | Ac-GASGHPKFL-NH2 [SGHP] | 0 (a score of 0 if no trace of the product of hydrolysis was seen after 8 hours of incubation) | 0 (a score of 0 if no trace of the product of hydrolysis was seen after 8 hours of incubation)
12 | Ac-GASGHQKFL-NH2 [SGHQ] | 0 (a score of 0 if no trace of the product of hydrolysis was seen after 8 hours of incubation) | 0 (a score of 0 if no trace of the product of hydrolysis was seen after 8 hours of incubation)
13 | Ac-GASGHRKFL-NH2 [SGHR] | 3 (a score of 3 for detection at 8 hours) | 3 (a score of 3 for detection at 8 hours)
14 | Ac-GASGHSKFL-NH2 [SGHS] | 0 (a score of 0 if no trace of the product of hydrolysis was seen after 8 hours of incubation) | 0 (a score of 0 if no trace of the product of hydrolysis was seen after 8 hours of incubation)
15 | Ac-GASGHTKFL-NH2 [SGHT] | 0 (a score of 0 if no trace of the product of hydrolysis was seen after 8 hours of incubation) | 0 (a score of 0 if no trace of the product of hydrolysis was seen after 8 hours of incubation)
16 | Ac-GASGHVKFL-NH2 [SGHV] | 0 (a score of 0 if no trace of the product of hydrolysis was seen after 8 hours of incubation) | 3 (a score of 3 for detection at 8 hours)
